# Counter-ions that a name gives are not always drawn. Like-named read-outs stand apart in the source and are kept apart here.
# Columns and labels:
# [1] = molecular target: CDK2/Cyclin A (Homo sapiens, UniProt P24941); assay: Inhibition of CDK2/Cyclin A Retinoblastoma Kinase Activity; format: biochemical; settings: for Ki: apparent Ki, CDK2/proteolyzed cyclin A, Rb fragment substrate, 25 μM ATP
# Outline: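 Percent inhibition is calculated against DMSO-only wells after subtracting no-enzyme background. The enzyme is human CDK2 complexed with proteolyzed cyclin A, used at 10 nM or 19 nM on an Rb fragment with 25 μM [32/33P]ATP, at pH 7.4 and 30° C.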
# [2] = molecular target: human CDK4 and genetically truncated (1-264) cyclin D3 (Homo sapiens, UniProt P11802); assay: Inhibition of CDK4/Cyclin D Retinoblastoma Kinase Activity; format: biochemical; settings: for Ki: apparent Ki, CDK4/truncated cyclin D3, Rb fragment substrate, 25 μM ATP
# Outline: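 Apparent Ki values derive from fitting activity at varied inhibitor concentrations to a competitive (or competitive tight-binding) model. Kinase reactions used 5 nM CDK4/cyclin D3(1-264), Rb fragment substrate and 25 μM ATP. Incubation ran 20 min at 30 °C, extended to 60 min under linear conditions for tight binders.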
# [3] = system: HCT-116 cell line; assay: Inhibition of cell growth, tetrazolium salt (MTT) assay; format: cell-based; settings: for HCT-116 % Inhibition at 0.25 μM: 0.25 μM compound; for IC50: Homo sapiens, HCT-116, 120 h, MTT, three to five days, read-out: HCT-116 IC50
# Outline: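 First, cells were seeded in McCoy's 5A medium and held 4 h. Next, inhibitor concentrations in 0.5% (v/v) DMSO were applied for three to five days at 37° C, 5% CO2. Finally, after 4 h with 0.2 mg/mL MTT and medium removal, solubilized formazan was measured at 540 nm.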
# [4] = 0.1 μM compound, HCT-116, Table 4
# [5] = 0.1 μM compound, HCT-116, Table 3
# Chain of human CDK4 and genetically truncated (1-264) cyclin D3 (P11802 whole entry, the tested form may be a part): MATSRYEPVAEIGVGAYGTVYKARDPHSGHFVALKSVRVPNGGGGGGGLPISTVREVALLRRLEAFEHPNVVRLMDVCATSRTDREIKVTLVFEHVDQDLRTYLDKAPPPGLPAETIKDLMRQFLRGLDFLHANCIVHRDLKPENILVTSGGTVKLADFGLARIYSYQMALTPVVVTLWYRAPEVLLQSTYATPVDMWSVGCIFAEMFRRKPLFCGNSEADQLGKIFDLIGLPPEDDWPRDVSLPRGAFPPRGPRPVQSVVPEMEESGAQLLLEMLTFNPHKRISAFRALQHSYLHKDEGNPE
# Chain of human CDK4 and genetically truncated (1-264) cyclin D3 (P30281 1-264 partner): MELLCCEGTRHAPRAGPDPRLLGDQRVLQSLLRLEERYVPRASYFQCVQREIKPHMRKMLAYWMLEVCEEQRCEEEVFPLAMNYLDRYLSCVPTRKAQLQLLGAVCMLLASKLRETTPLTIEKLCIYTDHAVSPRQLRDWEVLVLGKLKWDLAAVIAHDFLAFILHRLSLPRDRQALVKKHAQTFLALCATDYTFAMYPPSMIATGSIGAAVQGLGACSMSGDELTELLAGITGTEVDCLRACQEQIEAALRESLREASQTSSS
smiles,measurement,setting,value
CCOC(=O)N1CCC(Nc2nc(N)c(C(=O)c3c(F)cccc3F)s2)CC1 [Example Q8],CDK2 % Inhibition at 0.03 μM,"[1]; 0.03 μM compound, Table 4",−13%
same,CDK4 % Inhibition at 0.03 μM,"[2]; 0.03 μM compound, Table 4",15%
same,HCT-116 % Inhibition at 0.1 μM,[3]; [4],6%
same,HCT-116 % Inhibition at 0.25 μM,"[3]; HCT-116, Table 4",45%
Nc1nc(NC2CCN(C(=O)c3ccccc3F)CC2)sc1C(=O)c1c(F)cccc1F [Example Q11],CDK2 % Inhibition at 0.03 μM,"[1]; 0.03 μM compound, Table 4",30%
same,CDK4 % Inhibition at 0.03 μM,"[2]; 0.03 μM compound, Table 4",57%
same,HCT-116 % Inhibition at 0.1 μM,[3]; [4],7%
same,HCT-116 % Inhibition at 0.25 μM,"[3]; HCT-116, Table 4",43%
"CN(C)CCCc1ccc(S(=O)(=O)N2CCC(Nc3nc(N)c(C(=O)c4c(F)cccc4F)s3)CC2)cn1 [Example I12, 1-(4-Amino-2-{1-[6-(3-dimethylamino-propyl)-pyridine-3-sulfonyl]-piperidin-4-ylamino}-thiazol-5-yl)-1-(2,6-difluoro-phenyl)-methanone]",Ki,[1],1.3 nM
same,Ki,[2],1.1 nM
same,IC50,[3]; first HCT-116 column (c4),300 nM
same,IC50,[3]; second HCT-116 column (c5),3400 nM
Nc1nc(NC2CCN(C(=O)c3cccnc3Cl)CC2)sc1C(=O)c1c(F)cccc1F [Example R18],CDK2 % Inhibition at 0.03 μM,[1]; at 0.03 μM,25%
same,CDK4 % Inhibition at 0.03 μM,[2]; at 0.03 μM,46%
same,HCT-116 % Inhibition at 0.1 μM,"[3]; HCT-116 cells, at 0.1 μM",0%
same,HCT-116 5 Inhibition at 0.25 μM,[3]; HCT-116 cells,45
Nc1nc(NC2CCN(S(=O)(=O)c3ccccc3F)CC2)sc1C(=O)c1c(F)cccc1F [Example P32],CDK2 % Inhibition at 0.03 μM,"[1]; 0.03 μM compound, Table 3",58%
same,CDK4 % Inhibition at 0.03 μM,"[2]; 0.03 μM compound, Table 3",59%
same,HCT-116 % Inhibition at 0.1 μM,[3]; [5],13%
same,HCT-116 % Inhibition at 0.25 μM,"[3]; HCT-116, Table 3",28%
Nc1nc(NC2CCN(C(=O)c3cccc(F)c3)CC2)sc1C(=O)c1c(F)cccc1F [Example R130],CDK2 % Inhibition at 0.03 μM,[1]; at 0.03 μM,59%
same,CDK4 % Inhibition at 0.03 μM,[2]; at 0.03 μM,77%
same,HCT-116 % Inhibition at 0.1 μM,"[3]; HCT-116 cells, at 0.1 μM",0%
same,HCT-116 5 Inhibition at 0.25 μM,[3]; HCT-116 cells,20
"Cc1cn(-c2ccc(S(=O)(=O)N3CCC(Nc4nc(N)c(C(=O)c5c(F)cccc5F)s4)CC3)cn2)cn1 [Example G27, 1-(4-Amino-2-{1-[6-(4-methyl-imidazol-1-yl)-pyridine-3-sulfonyl]-piperidin-4-ylamino}-thiazol-5-yl)-1-(2,6-difluoro-phenyl)-methanone Hydrochloride]",Ki,[1],0.41 nM
same,Ki,[2],< 1 nM
same,IC50,[3]; first HCT-116 column (c4),57 nM
same,IC50,[3]; second HCT-116 column (c5),250 nM
Nc1nc(NC2CCN(C(=O)CSc3ccccc3)CC2)sc1C(=O)c1c(F)cccc1F [Example R32],CDK2 % Inhibition at 0.03 μM,[1]; at 0.03 μM,38%
same,CDK4 % Inhibition at 0.03 μM,[2]; at 0.03 μM,65%
same,HCT-116 % Inhibition at 0.1 μM,"[3]; HCT-116 cells, at 0.1 μM",0%
same,HCT-116 5 Inhibition at 0.25 μM,[3]; HCT-116 cells,48
Cc1ccc(NC(=O)N2CCC(Nc3nc(N)c(C(=O)c4c(F)cccc4F)s3)CC2)c(C)c1 [Example O41],CDK2 % Inhibition At 0.03 μM,"[1]; 0.03 μM compound, Table 2",33%
same,CDK4 % Inhibition at 0.03 μM,"[2]; 0.03 μM compound, Table 2",1%
same,HCT-116 % Inhibition at 0.25 μM,"[3]; HCT-116, Table 2",26%
CCC(C(=O)N1CCC(Nc2nc(N)c(C(=O)c3c(F)cccc3F)s2)CC1)c1ccccc1 (centres unmarked) [Example R163],CDK2 % Inhibition at 0.03 μM,[1]; at 0.03 μM,26%
same,CDK4 % Inhibition at 0.03 μM,[2]; at 0.03 μM,28%
same,HCT-116 % Inhibition at 0.1 μM,"[3]; HCT-116 cells, at 0.1 μM",0%
same,HCT-116 5 Inhibition at 0.25 μM,[3]; HCT-116 cells,44
CCCCOc1ccc(C(=O)N2CCC(Nc3nc(N)c(C(=O)c4c(F)cccc4F)s3)CC2)cc1 [Example Q29],CDK2 % Inhibition at 0.03 μM,"[1]; 0.03 μM compound, Table 4",21%
same,CDK4 % Inhibition at 0.03 μM,"[2]; 0.03 μM compound, Table 4",60%
same,HCT-116 % Inhibition at 0.1 μM,[3]; [4],7%
same,HCT-116 % Inhibition at 0.25 μM,"[3]; HCT-116, Table 4",50%
"CN(C)CCOc1ccc(S(=O)(=O)N2CCC(Nc3nc(N)c(C(=O)c4c(Cl)cccc4Cl)s3)CC2)cn1 [Example H17, 1-(4-Amino-2-{1-[6-(2-dimethylamino-ethoxy)-pyridine-3-sulfonyl]-piperidin-4-ylamino}-thiazol-5-yl)-1-(2,6-dichloro-phenyl)-methanone Hydrochloride Salt]",Ki,[1],1.8 nM
same,Ki,[2],1.7 nM
same,IC50,[3]; first HCT-116 column (c4),50 nM
same,IC50,[3]; second HCT-116 column (c5),170 nM
Cc1nn(-c2ccccc2)nc1C(=O)N1CCC(Nc2nc(N)c(C(=O)c3c(F)cccc3F)s2)CC1 [Example R24],CDK2 % Inhibition at 0.03 μM,[1]; at 0.03 μM,20%
same,CDK4 % Inhibition at 0.03 μM,[2]; at 0.03 μM,49%
same,HCT-116 % Inhibition at 0.1 μM,"[3]; HCT-116 cells, at 0.1 μM",5%
same,HCT-116 5 Inhibition at 0.25 μM,[3]; HCT-116 cells,39
N#Cc1c(Cl)cccc1Oc1ccc(S(=O)(=O)N2CCC(Nc3nc(N)c(C(=O)c4c(F)cccc4F)s3)CC2)cc1 [Example P52],CDK2 % Inhibition at 0.03 μM,"[1]; 0.03 μM compound, Table 3",49%
same,CDK4 % Inhibition at 0.03 μM,"[2]; 0.03 μM compound, Table 3",47%
same,HCT-116 % Inhibition at 0.1 μM,[3]; [5],16%
same,HCT-116 % Inhibition at 0.25 μM,"[3]; HCT-116, Table 3",22%
Nc1nc(NC2CCN(C(=O)c3ccc(N=Nc4ccccc4)cc3)CC2)sc1C(=O)c1c(F)cccc1F [Example R13],CDK2 % Inhibition at 0.03 μM,[1]; at 0.03 μM,32%
same,CDK4 % Inhibition at 0.03 μM,[2]; at 0.03 μM,69%
same,HCT-116 % Inhibition at 0.1 μM,"[3]; HCT-116 cells, at 0.1 μM",0%
same,HCT-116 5 Inhibition at 0.25 μM,[3]; HCT-116 cells,42
